Data from patent publication US8415469B2, “Compounds and methods for kinase modulation, and indications therefor” (Plexxikon Inc., priority 2005, dated 2013).

Experiments:
Format in all cases: biochemical
Kit = target: T1, Kit (Homo sapiens, UniProt P10721); test: AlphaScreen kinase assay, Kit; details: read-out: IC50, activity toward kinase Kit
T1 construct: P1332.N6 BI PTP KIT M552-K948-X COD; His6 (N); made in house; host or cells: E. coli (PTP1B co-expressed)

Kdr = target: T2, Kdr (Homo sapiens, UniProt P35968); test: Z'-Lyte FRET kinase assay (Invitrogen), Kdr; details: read-out: IC50, activity toward kinase Kdr
T2 construct: purchased Invitrogen (assay run by Invitrogen)
T2 sequence (P35968 20-1356): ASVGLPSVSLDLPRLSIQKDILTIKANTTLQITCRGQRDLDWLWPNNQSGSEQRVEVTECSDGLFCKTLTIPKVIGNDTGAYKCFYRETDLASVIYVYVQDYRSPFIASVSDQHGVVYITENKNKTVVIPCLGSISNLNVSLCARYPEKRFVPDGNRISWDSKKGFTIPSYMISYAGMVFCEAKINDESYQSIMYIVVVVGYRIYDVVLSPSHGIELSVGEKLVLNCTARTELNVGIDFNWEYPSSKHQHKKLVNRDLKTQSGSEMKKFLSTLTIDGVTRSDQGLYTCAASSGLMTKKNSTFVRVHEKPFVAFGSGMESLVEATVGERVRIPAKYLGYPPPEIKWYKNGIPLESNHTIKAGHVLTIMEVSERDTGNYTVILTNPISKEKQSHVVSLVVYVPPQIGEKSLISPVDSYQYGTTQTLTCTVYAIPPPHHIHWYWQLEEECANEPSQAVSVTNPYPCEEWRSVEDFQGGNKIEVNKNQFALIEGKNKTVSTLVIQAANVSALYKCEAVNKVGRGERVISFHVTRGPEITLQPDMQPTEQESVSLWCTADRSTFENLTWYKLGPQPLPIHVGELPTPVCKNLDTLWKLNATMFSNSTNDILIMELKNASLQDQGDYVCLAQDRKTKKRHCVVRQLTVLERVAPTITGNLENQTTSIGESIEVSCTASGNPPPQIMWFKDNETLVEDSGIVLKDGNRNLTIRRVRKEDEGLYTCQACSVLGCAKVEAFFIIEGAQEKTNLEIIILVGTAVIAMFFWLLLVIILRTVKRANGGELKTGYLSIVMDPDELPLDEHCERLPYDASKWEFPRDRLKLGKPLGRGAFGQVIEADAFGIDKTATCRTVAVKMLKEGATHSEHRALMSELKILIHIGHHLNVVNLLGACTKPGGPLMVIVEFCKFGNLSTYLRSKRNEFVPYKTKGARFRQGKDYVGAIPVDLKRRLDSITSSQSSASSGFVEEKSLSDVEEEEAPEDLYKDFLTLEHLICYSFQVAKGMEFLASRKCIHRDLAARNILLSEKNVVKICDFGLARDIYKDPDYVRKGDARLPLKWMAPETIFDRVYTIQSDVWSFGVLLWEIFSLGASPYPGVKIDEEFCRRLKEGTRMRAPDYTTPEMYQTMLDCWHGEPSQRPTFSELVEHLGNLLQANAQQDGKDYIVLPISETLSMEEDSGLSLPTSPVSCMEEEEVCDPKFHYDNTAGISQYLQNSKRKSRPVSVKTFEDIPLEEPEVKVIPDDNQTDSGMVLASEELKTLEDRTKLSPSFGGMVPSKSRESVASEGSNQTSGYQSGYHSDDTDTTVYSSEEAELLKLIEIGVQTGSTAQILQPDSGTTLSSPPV

Pyk2 = target: T3, Pyk2 (Homo sapiens, UniProt Q14289); test: AlphaScreen kinase assay, Pyk2; details: read-out: IC50, activity toward kinase Pyk2
T3 construct: purchased Upstate Biotechnology
T3 sequence (Q14289 whole entry): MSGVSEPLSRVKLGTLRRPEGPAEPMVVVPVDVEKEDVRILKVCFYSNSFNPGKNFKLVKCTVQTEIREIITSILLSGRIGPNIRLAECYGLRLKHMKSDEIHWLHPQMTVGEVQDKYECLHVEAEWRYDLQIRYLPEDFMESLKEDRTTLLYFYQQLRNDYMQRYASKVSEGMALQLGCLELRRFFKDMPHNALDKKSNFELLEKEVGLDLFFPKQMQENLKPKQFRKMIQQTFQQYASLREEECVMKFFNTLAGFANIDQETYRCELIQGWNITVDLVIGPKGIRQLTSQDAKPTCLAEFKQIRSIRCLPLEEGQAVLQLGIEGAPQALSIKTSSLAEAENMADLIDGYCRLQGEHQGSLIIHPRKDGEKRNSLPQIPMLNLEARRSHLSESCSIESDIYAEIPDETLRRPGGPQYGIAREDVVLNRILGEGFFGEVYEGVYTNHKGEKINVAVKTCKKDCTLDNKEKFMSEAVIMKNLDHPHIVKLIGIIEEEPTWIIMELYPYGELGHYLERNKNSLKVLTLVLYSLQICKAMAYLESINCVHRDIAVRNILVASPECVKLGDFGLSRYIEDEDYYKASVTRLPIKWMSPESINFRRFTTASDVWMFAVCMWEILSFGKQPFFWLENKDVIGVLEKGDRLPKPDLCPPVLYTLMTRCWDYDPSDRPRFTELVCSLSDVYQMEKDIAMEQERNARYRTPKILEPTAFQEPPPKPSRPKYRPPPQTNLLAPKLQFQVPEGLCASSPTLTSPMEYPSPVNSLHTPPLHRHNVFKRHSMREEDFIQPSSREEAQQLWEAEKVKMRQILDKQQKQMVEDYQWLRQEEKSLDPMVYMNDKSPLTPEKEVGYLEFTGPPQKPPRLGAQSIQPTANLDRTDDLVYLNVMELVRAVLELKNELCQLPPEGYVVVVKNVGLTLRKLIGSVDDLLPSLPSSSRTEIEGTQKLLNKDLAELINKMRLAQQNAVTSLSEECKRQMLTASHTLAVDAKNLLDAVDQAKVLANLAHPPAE

MAP4K4 = MAP4K4 (Homo sapiens, UniProt O95819); test: AlphaScreen kinase assay, MAP4K4; details: read-out: IC50, activity toward kinase MAP4K4
Sequence of MAP4K4 (O95819 whole entry): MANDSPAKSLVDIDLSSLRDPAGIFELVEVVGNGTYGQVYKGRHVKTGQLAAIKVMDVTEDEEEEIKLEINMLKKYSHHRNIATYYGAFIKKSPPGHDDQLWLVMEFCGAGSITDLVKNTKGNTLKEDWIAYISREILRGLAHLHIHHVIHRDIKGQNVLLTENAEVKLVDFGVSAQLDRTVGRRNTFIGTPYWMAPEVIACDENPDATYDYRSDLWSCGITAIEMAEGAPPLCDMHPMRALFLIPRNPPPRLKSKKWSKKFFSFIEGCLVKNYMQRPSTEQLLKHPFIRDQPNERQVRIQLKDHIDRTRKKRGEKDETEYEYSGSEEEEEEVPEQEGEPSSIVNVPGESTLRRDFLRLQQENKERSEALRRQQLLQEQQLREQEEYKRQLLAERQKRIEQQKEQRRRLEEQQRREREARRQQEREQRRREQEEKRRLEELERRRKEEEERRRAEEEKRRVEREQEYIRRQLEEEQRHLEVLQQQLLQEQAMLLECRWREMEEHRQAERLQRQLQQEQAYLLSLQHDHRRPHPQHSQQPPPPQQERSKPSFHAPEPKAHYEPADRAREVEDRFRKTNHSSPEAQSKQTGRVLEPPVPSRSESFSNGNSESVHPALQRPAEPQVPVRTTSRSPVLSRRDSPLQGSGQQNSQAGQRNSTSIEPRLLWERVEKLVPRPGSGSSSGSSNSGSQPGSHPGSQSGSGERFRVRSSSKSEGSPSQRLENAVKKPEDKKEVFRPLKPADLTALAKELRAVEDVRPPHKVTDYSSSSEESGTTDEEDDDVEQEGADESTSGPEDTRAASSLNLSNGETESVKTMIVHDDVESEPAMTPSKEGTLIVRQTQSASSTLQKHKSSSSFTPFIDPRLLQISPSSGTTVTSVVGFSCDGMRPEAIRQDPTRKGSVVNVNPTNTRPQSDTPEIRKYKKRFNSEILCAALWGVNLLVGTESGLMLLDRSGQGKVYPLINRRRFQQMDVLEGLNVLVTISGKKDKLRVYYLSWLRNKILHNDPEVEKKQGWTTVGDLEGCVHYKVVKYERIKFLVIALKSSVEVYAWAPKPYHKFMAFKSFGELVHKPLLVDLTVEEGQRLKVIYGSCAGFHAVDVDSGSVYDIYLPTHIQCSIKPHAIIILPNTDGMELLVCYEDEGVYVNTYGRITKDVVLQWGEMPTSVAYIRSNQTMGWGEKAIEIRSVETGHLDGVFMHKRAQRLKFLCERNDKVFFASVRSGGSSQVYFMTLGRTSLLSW

Ret = target: T4, Ret (Homo sapiens, UniProt P07949); test: AlphaScreen kinase assay, Ret; details: read-out: IC50, activity toward kinase Ret
T4 construct: P1378.pET-SF BI-PTP RET H661-R1012 HIS; made in house
T4 sequence (P07949 with tags, fused parts or gaps): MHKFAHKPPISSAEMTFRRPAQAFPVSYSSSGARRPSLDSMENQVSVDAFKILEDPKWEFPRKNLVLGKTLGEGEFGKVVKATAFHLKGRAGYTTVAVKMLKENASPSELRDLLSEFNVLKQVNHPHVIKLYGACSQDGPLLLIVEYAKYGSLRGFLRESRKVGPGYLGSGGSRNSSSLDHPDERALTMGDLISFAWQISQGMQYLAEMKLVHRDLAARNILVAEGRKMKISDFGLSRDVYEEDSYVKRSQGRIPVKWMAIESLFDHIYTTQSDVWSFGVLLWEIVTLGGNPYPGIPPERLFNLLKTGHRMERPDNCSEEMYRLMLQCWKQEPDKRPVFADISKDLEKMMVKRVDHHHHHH
Source text: AlphaScreen assay was used to screen additional kinases. The assay is similarly dependent on the phosphorylation of a peptide substrate. In this assay, an antibody that recognizes phosphorylated substrate is bound to an acceptor bead. The peptide substrate is attached to biotin, which binds to a donor head that contains streptavidin. Thus phosphorylated substrate is bound by antibody and streptavidin, bringing the donor and acceptor heads into close proximity when kinase is not inhibited. The donor produces singlet oxygen which results in emission from the acceptor when they are in close proximity. Conversely, when kinase is inhibited, the donor and acceptor beads are not associated and the emission from the acceptor is reduced.
AlphaScreen assays were done using compounds dissolved in DMSO to a concentration of 20 mM. The compounds were diluted accordingly to the desired final concentrations in each sample well, using 1:3 serial dilution for a total of 8 concentration points. Plates were prepared such that each kinase reaction is 20 μl in 1× kinase buffer, 5% DMSO and 10 μM ATP. After incubation of the kinase reaction for 1 hour at room temperature, 5 μl of donor beads in stop buffer (50 mM EDTA in 1× kinase buffer) was added, the sample was mixed and incubated for 20 minutes at room temperature before adding 5 μl of acceptor beads in stop buffer. The samples were incubated for 60 minutes at room temperature and the signal per well was read on AlphaQuest reader.

PKC theta = target: T5, PKC theta (Homo sapiens, UniProt Q04759); test: Z'-Lyte FRET kinase assay (Invitrogen), PKC theta; details: read-out: IC50, activity toward kinase PKC theta
T5 construct: purchased Invitrogen (Carlsbad, Calif.), screening service
T5 sequence (Q04759 whole entry): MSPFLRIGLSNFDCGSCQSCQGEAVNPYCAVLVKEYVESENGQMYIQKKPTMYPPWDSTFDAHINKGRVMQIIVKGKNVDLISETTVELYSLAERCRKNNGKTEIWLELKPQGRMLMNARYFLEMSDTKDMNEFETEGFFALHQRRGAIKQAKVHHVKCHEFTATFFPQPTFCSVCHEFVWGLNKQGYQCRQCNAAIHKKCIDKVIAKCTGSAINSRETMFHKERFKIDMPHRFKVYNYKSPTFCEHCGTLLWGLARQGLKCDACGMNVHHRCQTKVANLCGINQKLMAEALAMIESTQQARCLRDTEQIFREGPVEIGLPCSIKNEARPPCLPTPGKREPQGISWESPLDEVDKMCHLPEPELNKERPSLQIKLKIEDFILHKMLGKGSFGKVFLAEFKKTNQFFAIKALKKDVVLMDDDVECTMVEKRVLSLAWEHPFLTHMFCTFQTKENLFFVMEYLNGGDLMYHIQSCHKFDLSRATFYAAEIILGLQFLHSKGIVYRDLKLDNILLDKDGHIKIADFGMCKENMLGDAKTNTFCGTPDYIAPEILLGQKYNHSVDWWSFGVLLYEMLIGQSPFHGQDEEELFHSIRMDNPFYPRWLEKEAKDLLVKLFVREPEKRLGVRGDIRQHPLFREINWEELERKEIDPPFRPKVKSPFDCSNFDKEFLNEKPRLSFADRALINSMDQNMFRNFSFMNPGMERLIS
Source text: The effect of potential modulators of kinase activity can be measured in a variety of different assays known in the art. For example, direct radiometric, indirect FRET or AlphaScreen assays may be used to assess the level of phosphorylation of a substrate in the presence of test compounds in order to determine the inhibitory affect of the compound on the kinase. Invitrogen (Carlsbad, Calif.) uses a FRET based assay for Btk, EGFR, EphB2, Flt3, lrak4, Kdr, MAP2K1, MAPKAPK2, PDGFRB, PKC theta, Stk6 and Yes. For these assays, compounds of the invention were screened by Invitrogen using Z′-Lyte™ kinase assay.
Briefly, the Invitrogen kinase assay involves use of a specific peptide substrate optimized for each kinase, containing a fluorophore at each end that make up the FRET pair. The peptide sensitivity to proteolytic cleavage depends on phosphorylation of the peptide. Non-phosphorylated peptide is cleaved by a protease while peptide phosphorylated by the kinase is not cleaved. Cleavage of the peptide disrupts the FRET between the donor (coumarin) and acceptor (fluorescein) fluorophores, resulting in an increase in the ratio of donor emission to acceptor emission. The emission ratio of coumarin to fluorescein is used to assess the reaction progress. The extent of phosphorylation is determined from the emission ratio, which is low when the kinase is active (phosphorylated peptide is not cleaved, FRET pair connected) or higher for inhibited kinase (non-phosphorylated peptide is cleaved, FRET pair separated). Thus, the assay involves a kinase reaction in the presence of varying concentrations of a given compound, a development reaction with site specific protease, and detection of the fluorescent emission ratio of coumarin and fluorscein. […] Reaction conditions for each kinase are determined to provide optimal reaction times, incubation temperature, kinase and ATP concentrations. Test samples are made up in 1× kinase buffer (50 mM HEPES pH 7.5, 50 mM MgCl2, 5 mM EGTA, 0.05% BRIJ-35) and compound at desired concentration prepared in DMSO such that the final DMSO is 1%. […] Typically, assay plates are prepared to 10 μl final volume per sample, adding 2.5 μl of compound at 4× the desired concentration in 4% DMSO (serial dilution of compound provides concentration curve), 5 μl of the desired kinase mixed with Z′-LYTE™ peptide substrate (2× in 2× kinase buffer, final peptide at 2 μM), and 2.5 μl of 4×ATP solution. All kinase except for MAP2K1 were at 10 μM ATP in the kinase reaction, while MAP2K1 was at 100 μM. Samples are mixed and the kinase reaction is incubated 1 hour at room temperature, after which 5 μl of development solution is added and mixed. After incubation for another 1 hour at room temperature, 5 μl of stop reagent is added to each sample and mixed. The fluorescence signals are measured to determine the emission ratio.

Jnk2 = target: T6, Jnk2 (Homo sapiens, UniProt P45984); test: AlphaScreen kinase assay, Jnk2; details: read-out: IC50, activity toward kinase Jnk2
T6 construct: purchased Roche Protein Expression Group (Indianapolis, IN)
In short: (§1)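 AlphaScreen read-out: acceptor-bead emission falls when kinase is inhibited. Biotin-peptide substrate captured on streptavidin donor beads, phospho-specific antibody on acceptor beads. 8 concentrations, 1:3 dilution series, from 20 mM DMSO stocks.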

Stk6 = target: T7, Stk6 (Homo sapiens, UniProt O14965); test: Z'-Lyte FRET kinase assay (Invitrogen), Stk6; details: read-out: IC50, activity toward kinase Stk6
T7 construct: purchased Invitrogen (Carlsbad, Calif.), screening service
T7 sequence (O14965 1-403): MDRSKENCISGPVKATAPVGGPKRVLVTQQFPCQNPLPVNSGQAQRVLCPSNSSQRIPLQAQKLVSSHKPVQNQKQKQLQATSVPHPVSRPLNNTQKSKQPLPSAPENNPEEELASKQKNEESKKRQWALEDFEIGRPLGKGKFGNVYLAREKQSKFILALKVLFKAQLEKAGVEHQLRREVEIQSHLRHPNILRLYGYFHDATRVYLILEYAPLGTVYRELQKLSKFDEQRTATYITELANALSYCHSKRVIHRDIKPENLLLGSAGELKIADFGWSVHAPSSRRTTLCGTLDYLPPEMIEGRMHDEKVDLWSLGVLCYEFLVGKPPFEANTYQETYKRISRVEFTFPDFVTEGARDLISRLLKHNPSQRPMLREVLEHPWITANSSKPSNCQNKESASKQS

Zap70 = target: T8, Zap70 (Homo sapiens, UniProt P43403); test: AlphaScreen kinase assay, Zap70; details: read-out: IC50, activity toward kinase Zap70
T8 construct: P1868.pFastBac1 ZAP70 D327-G606 HIS, WT; His7 (HHHHHHH) (C); made in house
T8 sequence (P43403 with tags, fused parts or gaps): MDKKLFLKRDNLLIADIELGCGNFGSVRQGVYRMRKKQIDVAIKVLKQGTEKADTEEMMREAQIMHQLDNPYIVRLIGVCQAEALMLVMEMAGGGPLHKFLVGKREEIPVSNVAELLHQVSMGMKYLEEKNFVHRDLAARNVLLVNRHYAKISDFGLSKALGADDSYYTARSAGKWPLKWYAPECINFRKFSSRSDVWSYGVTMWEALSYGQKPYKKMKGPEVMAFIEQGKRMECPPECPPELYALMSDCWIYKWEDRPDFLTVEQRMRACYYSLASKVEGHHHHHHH
In short: as §1

Measured: IC50

T1 sequence (P10721 with tags, fused parts or gaps): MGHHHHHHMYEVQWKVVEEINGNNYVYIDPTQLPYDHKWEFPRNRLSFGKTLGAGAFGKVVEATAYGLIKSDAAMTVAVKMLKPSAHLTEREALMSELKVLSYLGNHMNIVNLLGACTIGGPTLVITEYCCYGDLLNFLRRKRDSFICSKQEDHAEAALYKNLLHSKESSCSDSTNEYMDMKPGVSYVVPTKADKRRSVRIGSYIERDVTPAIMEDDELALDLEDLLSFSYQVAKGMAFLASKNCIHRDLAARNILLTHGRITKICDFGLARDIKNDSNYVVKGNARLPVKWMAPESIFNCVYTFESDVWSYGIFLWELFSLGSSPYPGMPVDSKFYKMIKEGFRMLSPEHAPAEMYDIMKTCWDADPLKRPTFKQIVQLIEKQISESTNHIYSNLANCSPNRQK

O=C1Nc2ccccc2/C1=C/c1c[nH]c2ncccc12 [Compound P-0069]
not listed: Zap70
≤ 10 µM: all other assays above

CC(=O)Nc1cccc(-c2ccnc3[nH]ccc23)c1 [Compound P-0030]
≤ 10 µM: Kit | Kdr | PKC theta | Zap70 | Stk6
